Conditions: rat; liver microsomes; pH 7.4; 15.0 min; 1.0 µM

Going from `O=c1[nH]c(N2CCOCC2)nc2c1CCN(Cc1cc(Cl)ccc1F)CC2` to `Oc1ccc(-c2nc(C3CC3)nc3c2CCN(Cc2ccc(F)cc2)CC3)cc1`, the half-life falls from greater than 30 min to 2.02 min.

Compared with `Cc1ccc(S(=O)(=O)Nc2cccc(C(=O)Nc3nc(-c4ccc(Cl)cc4)cs3)c2)cc1`, `Cc1ccc(S(=O)(=O)Nc2cnccc2C(=O)Nc2nc(-c3ccc(F)cc3)cs2)cc1` is higher in half-life: 23 min for the first, greater than 30 min for the second.

Going from `CCCCCOc1ccccc1/C(=C\SC)n1ccnc1` to `Cc1ccc(-n2ncc3c(NCCCn4ccnc4)ncnc32)cc1Cl`, the half-life rises from 6.67 min to 22.7 min (3.4-fold).

Compared with `COc1oc(-c2cccc3ccccc23)nc1C(=O)O`, `CC(C)Nc1oc(-c2cccc3ccccc23)nc1C#N` is lower in half-life: greater than 30 min for the first, 24 min for the second.

`N#Cc1ccc(S(=O)(=O)Nc2cnccc2C(=O)Nc2nc(-c3ccccc3)cs2)cc1` and `Cc1ccc(S(=O)(=O)Nc2cnccc2C(=O)Nc2nc(-c3ccc(-c4ccccc4)cc3)cs2)cc1` cannot be ordered by half-life: greater than 30 min for the first, greater than 30 min for the second.

Compared with `COc1ccc2c(c1)/C(=C/c1cnc[nH]1)C(=O)N2`, `CN1C(=O)CN=C(c2ccc[nH]2)c2cc(Cl)ccc21` is lower in half-life: greater than 30 min for the first, 16 min for the second.

Compared with `O=S(=O)(Nc1cccc2ccccc12)c1ccc(NCc2cccc(Cl)c2O)cc1`, `O=S(=O)(Nc1cnc2ccccc2c1)c1ccc(NCc2cccc(Cl)c2O)cc1` is 4.2-fold higher in half-life: 4.3 min for the first, 18 min for the second.

`COc1cccc(NCCC2(c3ccccc3)CC(C)(C)OC(C)(C)C2)c1` and `COc1cccc(CNC(=O)c2ccc(N3CCCC3)c(NC(=O)Nc3ccccc3F)c2)c1` are within 1.5-fold of each other in half-life: 1.6 min for the first, 1.7 min for the second.

`COc1ccc(-c2ccc3nc(-c4cc(F)ccc4F)oc3c2)c(OC)c1OC` and `COc1ccc(OC)c(-n2c3c(cc(-c4nc(-c5ccc(Cl)cc5)cs4)c2=O)C(=O)CC(C)(C)C3)c1` cannot be ordered by half-life: greater than 30 min for the first, greater than 30 min for the second.

Going from `CCOc1ccc(CCNC(=O)c2cc3sccc3n2Cc2cccc(C)c2)cc1OCC` to `CCOc1ccc(CCNC(=O)c2cc3ncccc3n2Cc2cccc(C)n2)cc1OCC`, the half-life rises from 1.8 min to 6.7 min (3.7-fold).

`NC1CCN(C(=O)C2CCCN(c3nc(-c4ccccc4)nc4c3CCC4)C2)CC1` (stereo not drawn) and `NC(=O)N1CCCC(C(=O)N2CCCN(c3ccc(F)cc3)CC2)C1` (stereo not drawn) cannot be ordered by half-life: greater than 30 min for the first, greater than 30 min for the second.

Compared with `NC1(c2ccccc2Cl)CCCCC1=O` (stereo not drawn), `O=C(NCCc1nc2ccccc2n1CCO)C1CCCCC1` is 1.8-fold higher in half-life: 11 min for the first, 20.3 min for the second.

Compared with `C#CCNC(=O)c1nc(-c2ccc(Cl)nc2)c2ccccn12`, `COC(=O)CNC(=O)c1nc(-c2ccc(Cl)cc2Cl)c2cnccn12` is 6.5-fold lower in half-life: 24 min for the first, 3.71 min for the second.

Going from `O=c1[nH]c(C2CCCN(CC3CCCCC3)C2)nn1-c1ccc(Cl)cc1` (stereo not drawn) to `CCC1=Nc2cc(C(=O)NC3CCCC3)ccc2Sc2ccc(Cl)cc21`, the half-life falls from greater than 30 min to 1.61 min.

`CC(C)(C)NS(=O)(=O)c1ccc(-c2ccc3[nH]nc(N)c3c2)cc1` and `Cc1ccc(-c2cc(C(=O)NCc3ccc(S(N)(=O)=O)cc3)c3ccccc3n2)cc1C` are within 1.5-fold of each other in half-life: 17.2 min for the first, 17 min for the second.

Compared with `COc1cc2c(C(=O)N3CCN(c4cccc(C(F)(F)F)c4)CC3)cn(CC(C)C)c(=O)c2cc1OC`, `O=c1cc(CN2CCCN(c3ccc(C(F)(F)F)cn3)CC2)nc2ccccn12` is 2.8-fold higher in half-life: 3.15 min for the first, 8.7 min for the second.

Going from `Cc1cc(C)nc(N2CCCC(C(=O)NCCc3ccc(F)cc3)C2)n1` (stereo not drawn) to `Cc1ccc(-n2nc3c(=O)n(CCCC(=O)NCc4ccc(F)cc4)nc(C)c3c2C)cc1`, the half-life rises from 1.6 min to 2.77 min (1.7-fold).

Compared with `C#C[C@]1(OC(C)=O)CC[C@H]2[C@@H]3CCC4=C/C(=N/O)CC[C@@H]4[C@H]3CC[C@@]21CC`, `C/C(=N\NC(N)=S)C1=CCC2C3CC[C@H]4CC(O)CC[C@]4(C)C3CC[C@]12C` (stereo partly drawn) is higher in half-life: 3.98 min for the first, greater than 30 min for the second.

Going from `CC(C)(O)Cn1c(NC(=O)c2ccc(-c3cn[nH]c3)s2)nc2cc(CN3CCOCC3)ccc21` to `Cn1c(CN2CCCCC2)nc2cc(NC(=O)c3cccc(Br)c3)ccc21`, the half-life rises from 14 min to greater than 30 min.

Compared with `O=C(Nc1ccc([S+](=O)([O-])Nc2nccs2)cc1)c1ccn[nH]1`, `Cc1ccc(-c2cc(C(=O)Nc3ccc(S(=O)(=O)N(C)Cc4nccs4)cc3)c3ccccc3n2)cc1C` is lower in half-life: greater than 30 min for the first, 4.1 min for the second.

Going from `Cc1ccc(/C=C/c2nc3ccccc3n2S(=O)(=O)c2ccc(Br)cc2)cc1` to `CCOc1ccc(/C=C/c2nc3ccccc3n2S(=O)(=O)c2ccc(Br)cc2)cc1`, the half-life rises from 28.6 min to greater than 30 min.

Going from `COc1ccccc1-c1csc(N2CCC(C(N)=O)CC2)n1` to `NC(=O)C1CCN(c2nc(-c3cccs3)cs2)CC1`, the half-life falls from 15 min to 3.98 min (3.8-fold).

First: Cc1ccccc1C(=O)N1CCc2cc(-n3cc(NC(=O)Cc4ccccc4)cn3)ccc21
Second: O=C(Nc1cncc(Cc2ccccc2)c1)c1ccc(-c2cccc([N+](=O)[O-])c2)o1
The half-life of the first is 4.6-fold higher: 11 min for the first, 2.4 min for the second.

Compared with `COc1cc(NS(=O)(=O)c2ccc(C)cc2)c(C(=O)Nc2nc(-c3ccccc3)cs2)cc1OC`, `Cc1ccc(S(=O)(=O)Nc2cnccc2C(=O)Nc2nc(-c3cccc(F)c3)cs2)cc1` is 3-fold higher in half-life: 9 min for the first, 27 min for the second.

`COc1ccc(Nc2nc(-c3ccncc3)nc3ccccc23)cc1F` and `Fc1ccc(CNc2nc(-c3ccncc3)nc3ccccc23)cc1F` are within 1.5-fold of each other in half-life: 9.7 min for the first, 11 min for the second.

Compared with `O=c1cc(/C=C/c2c(F)cccc2Cl)[nH]c2ccccc12`, `Fc1ccc(Nc2nc(C3=CCNCC3)nc3ccccc23)cc1F` is 2.9-fold lower in half-life: 17.8 min for the first, 6.1 min for the second.

`CN1CCCC1CCOC(c1cc2nccc(C(=O)O)c2[nH]1)c1ccccc1Cl` (stereo not drawn) and `O=C(O)c1ccc(-c2c[nH]c3ncc(-c4ccccc4)cc23)cc1C1CCCC1` cannot be ordered by half-life: greater than 30 min for the first, greater than 30 min for the second.

`Oc1ccccc1CN1CCNc2cc(Nc3ccccc3)ncc2C1` and `CN(Cc1ccccc1)C(=O)C1CCN(Cc2cccc3ccccc23)CC1` are within 1.5-fold of each other in half-life: 1.79 min for the first, 2.4 min for the second.

First: Cc1cc(C)c(CNC(=O)c2nc(-c3cccc(CO)c3)cc3c2ccn3C)c(=O)[nH]1
Second: Cc1ccc(-n2nc3c(=O)n(CCCC(=O)NCc4ccccc4F)nc(C)c3c2C)cc1
The half-life of the first is 3.1-fold higher: 8.11 min for the first, 2.6 min for the second.

Compared with `O=C(C1CCN(c2nc(-c3ccc(Br)cc3)cs2)CC1)N1CCNCC1`, `NC(=O)C1CCN(c2nc(-c3ccc4c(c3)OCCCO4)cs2)CC1` is lower in half-life: greater than 30 min for the first, 6.7 min for the second.

First: CCOc1ccc(C(=O)Nc2ccc(S(=O)(=O)N3CCCCC3c3cccnc3)cc2)cc1 (stereo not drawn)
Second: CC(C)c1ccc(CC(=O)N2CCCc3ncc(C(=O)Nc4cccnc4)cc32)cc1
The half-life of the first is 3.3-fold lower: 1.71 min for the first, 5.67 min for the second.

Compared with `CC(=O)c1c(C)[nH]c(C(=O)Nc2cccc([S+](=O)([O-])Nc3c(C)cccc3C)c2)c1C`, `CC(=O)c1c(C)c(C(=O)Nc2cccc([S+](=O)([O-])N(C)C)c2)n(C)c1C` is 3-fold higher in half-life: 5 min for the first, 15 min for the second.

Compared with `COc1ccc(-n2c(C)c(C(C)=O)c3cc(OC(=O)COc4ccccc4)ccc32)cc1`, `CCOc1ccc(C2C(C(=O)Nc3ccccc3OC)=C(C)Nc3c(C(=O)Nc4cccc(C)c4)cnn32)cc1` (stereo not drawn) is 2.5-fold lower in half-life: 10.4 min for the first, 4.18 min for the second.

`COc1cccc(CNc2ccc(S(=O)(=O)Nc3nc4ccccc4[nH]3)cc2)c1O` and `O=[S+]([O-])(Nc1ccc(N2CCNCC2)cc1)c1ccc(NCc2cccc(Cl)c2O)cc1` cannot be ordered by half-life: greater than 30 min for the first, greater than 30 min for the second.

First: CN1CCN(C(=O)c2ccc3cc(CCNc4ncnc5ccc(C#N)cc45)ccc3c2)CC1
Second: CCNC(=O)N1CCCN(c2ccc(C(=O)NCCc3ccc(Cl)cc3Cl)cc2NC(=O)c2cccc(Cl)c2)CC1
The half-life of the first is 9-fold higher: 8.11 min for the first, 0.9 min for the second.

`NC(=O)C1CCN(c2ncc(Br)s2)CC1` and `NC(=O)C1CCN(c2nnc(-c3ccc4c(c3)OCCCO4)s2)CC1` cannot be ordered by half-life: greater than 30 min for the first, greater than 30 min for the second.

Going from `C[N+]1([O-])[C@@H]2CC[C@H]1CC(OC(=O)C(CO)c1ccccc1)C2` (stereo partly drawn) to `CCOC(=O)c1nn(-c2ccccc2)c(=O)c2c(N)scc12`, the half-life falls from greater than 30 min to 2.12 min.

`Cc1nc2c(-c3ccccc3)cnn2c(N)c1-c1ccccc1` and `FC(F)(F)c1ccc(CNc2nc(-c3ccccc3C(F)(F)F)nc3ccccc23)cc1` cannot be ordered by half-life: greater than 30 min for the first, greater than 30 min for the second.

First: CCOc1ccc(CCNC(=O)c2ccc(C3(C(F)(F)F)N=N3)cc2)cc1OCC
Second: O=C(NC1CCCc2c1cnn2-c1ccc(F)cc1F)c1ccc(C2(C(F)(F)F)N=N2)cc1 (stereo not drawn)
The half-life of the first is lower: 11 min for the first, greater than 30 min for the second.

First: Cc1cccc(-n2cnc3cc(C(=O)N4CCCC(C)(C)C4)ccc32)c1
Second: O=C(CCCN1CCC(O)(c2cccc(C(F)(F)F)c2)CC1)c1ccc(F)cc1
The half-life of the first is 13-fold lower: 1.6 min for the first, 20.5 min for the second.

Going from `COc1ccc(CNC(=O)CCCn2nc(C)c3c(C)n(-c4ccc(C)cc4)nc3c2=O)cc1OC` to `CCc1ccc(-n2c(=O)c3cccnc3n2CC(=O)Nc2cc(OC)ccc2OC)cc1`, the half-life falls from 4.18 min to 1 min (4.2-fold).

Going from `Cc1ccc(S(=O)(=O)Nc2cnccc2C(=O)Nc2nc(-c3ccc4c(c3)CCCC4)cs2)cc1` to `Cc1cc(NS(=O)(=O)c2ccc(NC(=O)Cc3ccc(F)c(Cl)c3)cc2)no1`, the half-life rises from 2.3 min to greater than 30 min.

Going from `Cc1ccc2nc(NC3=NC(c4[nH]ncc4Cl)C4=C(CCCC4=O)N3)oc2c1` (stereo not drawn) to `O=C1CCCC2=C1C(c1[nH]ncc1Cl)N=C(Nc1nc3cccc(Cl)c3o1)N2` (stereo not drawn), the half-life falls from 15.8 min to 4.5 min (3.5-fold).

`COc1ccccc1C(=O)Nc1ccccc1C(=O)Nc1cccc(S(=O)(=O)C(F)(F)F)c1` and `CNC(=O)c1cc(Oc2ccc(NC(=O)Nc3ccc(Cl)c(C(F)(F)F)c3)c(F)c2)ccn1` cannot be ordered by half-life: greater than 30 min for the first, greater than 30 min for the second.

First: Nc1ncc(S(=O)(=O)N2CCOCC2)s1
Second: NC(=O)COc1cccc(C2CC(=O)Nc3nc(N4CCCCC4)sc32)c1 (stereo not drawn)
The half-life of the first is higher: greater than 30 min for the first, 5.1 min for the second.

`CS(=O)(=O)c1ccc(-c2nnc(/C=C/c3nnc(-c4ccc(C#N)cc4)o3)n2-c2ccccc2Cl)nc1` and `N#C/C(=C\c1ccc(-c2ccc(C(=O)O)cc2)o1)c1nc2ccccc2[nH]1` cannot be ordered by half-life: greater than 30 min for the first, greater than 30 min for the second.

Going from `CCC[C@@H]1CN(C(=O)c2ccc(-c3ccc(C)o3)cc2)C[C@H]1NC(C)=O` to `CN(C)c1cccc(-c2ccnc(N3CCC(C(N)=O)CC3)n2)c1`, the half-life falls from 13.2 min to 1.67 min (7.9-fold).

Compared with `CN1C[C@@H]2C[C@H]1CN2c1cc2c(cc1F)c(=O)c(C(=O)O)cn2C1CC1`, `O=C(Nc1ccc2c(N3CCCCC3)ncnc2c1)c1cc(F)cc(F)c1` is lower in half-life: greater than 30 min for the first, 1.5 min for the second.

Going from `O=C(NCCc1ccc(OCC(F)(F)F)c(OCC(F)(F)F)c1)c1cc2sccc2n1Cc1ccccc1` to `Cc1nsc(N)c1C(=O)N(C)CCOc1ccccc1Cl`, the half-life rises from 1.9 min to 3.7 min (1.9-fold).

First: CC(=O)c1cccc(-c2csc3ncnc(Sc4nnnn4C)c23)c1
Second: CCn1nnnc1Sc1ncnc2scc(-c3ccc(C)cc3)c12
The half-life of the first is 2.2-fold higher: 3.08 min for the first, 1.4 min for the second.

`Cc1cc(NS(=O)(=O)c2ccc3c(c2)CCC(=O)N3)ccc1F` and `Cc1cc(-c2nnc3n2CCCCC3)c(C)n1-c1ccncc1` are within 1.5-fold of each other in half-life: 11.6 min for the first, 14 min for the second.

For `CCOC(=O)[C@H]1O[C@H]1C(=O)N[C@@H](CC(C)C)C(=O)NCCC(C)C`, the half-life was 1.48 min.

Reference: PubChem BioAssay AID1508591
